Source: patent US12552835B2, “Composition comprising Regentide-012 or Regentide-013 for improving skin condition” (NINEBIOPHARM CO., LTD., priority 2020, dated 2026)
Where a SMILES comes first, the peptide text is derived from it. Bridges are numbered along the chain shown (N, C = ends).

How the values were obtained:
Type in all cases: cell-based, human
CCD-986Sk [1] = experiment: Wound recovery effect of fibroblasts (insert gap migration); conditions: 1 and 2.5 μM, FBS-free medium, 16 and 40 hours
Experimental: (§1) In order to confirm the wound recovery effects of Regentide-012 and Regentide-013, CCD-986sk, which is dermal cells, was attached to a 6-well plate with an adhesive insert (Insert, Ibidi, Wisconsin, USA). The cells were dispensed at 6×10^4 cells/well in each well of the insert, and then cultured in cell culture conditions for 24 hours in a medium containing 2% FBS. Thereafter, the insert was removed and washed once using 1×DPBS. Regentide-034 was added to the medium at various concentrations (0, 1, and 2.5 μM) in an FBS-free medium, and cell images were measured at 100 times using a microscope (Nikon Eclipse E100, Tokyo, Japan) after 16 and 40 hours.

HaCaT cells [2] = experiment: Epidermal keratinocyte growth promoting efficacy (cell number); conditions: 0.5 μM, after 8 days
Experimental: (§2) In order to confirm the cell proliferation abilities of Regentide-012 and Regentide-013, HaCaT cells, which are epidermal keratinocytes, were dispensed at 1×10^4 cells/well in a 6-well plate, and then cultured for 6 hours in a medium containing 10% FBS. Thereafter, Regentide-012 and Regentide-013 were added at various concentrations (0, 0.1, 0.2, or 0.5 μM) and cultured for 8 days. The medium was replaced with a medium containing Regentide-012 and Regentide-013 in various concentrations every day, and the number of cells was measured at intervals of two days.

CCD-986Sk [3] = experiment: Cytotoxicity evaluation (CCK8 cell viability) in fibroblasts; conditions: 5 μM or 10 μM, 48 hours, FBS-free medium
Experimental: (§3) The cytotoxicities of Regentide-012 and Regentide-013 prepared in Example 1 above were evaluated. Specifically, cytotoxicities were measured in HaCaT cells, which are human epidermal keratinocytes, and CCD-986Sk, which is human fibroblasts. Keratinocytes were dispensed at 3×10^3 cells/well and fibroblasts were dispensed at 5×10^3 cells/well in a 96-well plate, and then cultured in cell culture conditions for 24 hours in a medium containing 10% FBS. After culturing, Regentide-012 and Regentide-013 were added to an FBS-free medium in an amount of 5 μM or 10 μM, and these were cultured for 48 hours. Thereafter, 10 μl per well of CCK8 reaction solution (Dojindo Molecular Technologies, Kumamoto, Japan) was treated and reacted for 4 hours, and then absorbance was measured at 450 nm. The average absorbance value for each sample group was obtained, and the cell viability was evaluated by comparing it with the absorbance values of cells that had not been treated with Regentide-012 and Regentide-013 as a control group.

CCD986Sk cells = experiment: Fibroblast growth promoting efficacy (cell number); conditions: 0.5 μM, after 8 days
Experimental: as §2, with “CCD986Sk” for “HaCaT”, “fibroblasts,” for “epidermal keratinocytes,”

HaCaT cells [4] = experiment: Wound recovery effect of epidermal keratinocytes (insert gap migration); conditions: 1 and 2.5 μM, FBS-free medium, 16 and 40 hours
Experimental: as §1, with “HaCaT cells,” for “CCD-986sk,”, “are epidermal keratinocytes, were” for “is dermal cells, was”, “Regentide-012 and Regentide-013 were” for “Regentide-034 was”, “photographed” for “measured”

HaCaT cells [5] = experiment: Cytotoxicity evaluation (CCK8 cell viability) in epidermal keratinocytes; conditions: 5 μM or 10 μM, 48 hours, FBS-free medium
Experimental: as §3

SMILES | cell numbers and cell migration abilities of fibroblasts (CCD-986Sk [1]) | cell growth rate higher than the control group (HaCaT cells [2]) [%] | cytotoxicity to fibroblasts (CCD-986Sk [3]) | cell growth rate higher than the control group (CCD986Sk cells) [%] | cell numbers and cell migration abilities of epidermal keratinocytes (HaCaT cells [4]) | cytotoxicity to epidermal keratinocytes (HaCaT cells [5])
CC[C@H](C)[C@H](NC(=O)[C@H](CCC(N)=O)NC(=O)[C@H](CCC(=O)O)NC(=O)[C@H](CCCCN)NC(C)=O)C(=O)NCC(=O)N[C@@H](CCCCN)C(=O)N[C@H]1CSSC[C@@H](C(=O)N[C@@H](CCCNC(=N)N)C(=O)N[C@@H](CCCNC(=N)N)C(=O)N[C@@H](CCCCN)C(=O)N[C@@H](CCCCN)C(N)=O)NC(=O)[C@H](Cc2c[nH]c3ccccc23)NC(=O)[C@H](CCCCN)NC(=O)[C@H](CCCNC(=N)N)NC(=O)CNC(=O)[C@H](CCCNC(=N)N)NC(=O)[C@H]([C@@H](C)O)NC(=O)[C@H](CO)NC1=O [Regentide-013, Ac-KEQIGKCSTRGRKWCRRKK-NH2] (Ac-KEQIGKCSTRGRKWCRRKK-NH2; disulfide 7-15) | increased the cell numbers and cell migration abilities | 60.8 | not toxic | 43.9 | increased the cell numbers and cell migration abilities | not toxic
CC[C@H](C)[C@H](NC(=O)[C@H](CCC(N)=O)NC(=O)[C@H](CCC(=O)O)NC(=O)[C@@H](N)CCCCN)C(=O)NCC(=O)N[C@@H](CCCCN)C(=O)N[C@H]1CSSC[C@@H](C(=O)N[C@@H](CCCNC(=N)N)C(=O)N[C@@H](CCCNC(=N)N)C(=O)N[C@@H](CCCCN)C(=O)N[C@@H](CCCCN)C(=O)O)NC(=O)[C@H](Cc2c[nH]c3ccccc23)NC(=O)[C@H](CCCCN)NC(=O)[C@H](CCCNC(=N)N)NC(=O)CNC(=O)[C@H](CCCNC(=N)N)NC(=O)[C@H]([C@@H](C)O)NC(=O)[C@H](CO)NC1=O [Regentide-012, KEQIGKCSTRGRKWCRRKK] (H-KEQIGKCSTRGRKWCRRKK-OH; disulfide 7-15) |  |  | not toxic |  |  | not toxic
